In ChEMBL document CHEMBL4507262, “Data for DCP probe A-1596586” (2021):

Tests used:
[1] = molecular target: Mu-type opioid receptor (Homo sapiens) (UniProt P35372); test: mu (MOP) (h) Eurofins-Cerep binding assay; parameters: ligand concentration 0.5 nM; details: filed as agonist, Compound concentration 10.0 uM
[2] = molecular target: Tyrosine-protein kinase JAK3 (Homo sapiens) (UniProt P52333); details: Compound concentration 1000.0 nM
[3] = molecular target: Ribosomal protein S6 kinase beta-1 (Homo sapiens) (UniProt P23443); details: Compound concentration 1000.0 nM
[4] = molecular target: Serine/threonine-protein kinase pim-3 (Homo sapiens) (UniProt Q86V86); details: Compound concentration 1000.0 nM
[5] = molecular target: Dual specificity protein kinase CLK1 (Homo sapiens) (UniProt P49759); details: Compound concentration 1000.0 nM
[6] = molecular target: Serine/threonine-protein kinase PknB (Mycobacterium tuberculosis) (UniProt P9WI81); details: Compound concentration 1000.0 nM
[7] = molecular target: Serine/threonine-protein kinase 38 (Homo sapiens) (UniProt Q15208); details: Compound concentration 1000.0 nM
[8] = molecular target: Sodium-dependent dopamine transporter (Homo sapiens) (UniProt Q01959); test: dopamine transporter (h) Eurofins-Cerep binding assay; parameters: ligand concentration 4 nM; details: filed as antagonist, Compound concentration 10.0 uM
[9] = test system: Serine/threonine-protein kinase B-raf (Homo sapiens), P15056 [V600E]; details: Compound concentration 1000.0 nM
Serine/threonine-protein kinase B-raf (Homo sapiens), P15056 [V600E], sequence (P15056 whole entry V600E): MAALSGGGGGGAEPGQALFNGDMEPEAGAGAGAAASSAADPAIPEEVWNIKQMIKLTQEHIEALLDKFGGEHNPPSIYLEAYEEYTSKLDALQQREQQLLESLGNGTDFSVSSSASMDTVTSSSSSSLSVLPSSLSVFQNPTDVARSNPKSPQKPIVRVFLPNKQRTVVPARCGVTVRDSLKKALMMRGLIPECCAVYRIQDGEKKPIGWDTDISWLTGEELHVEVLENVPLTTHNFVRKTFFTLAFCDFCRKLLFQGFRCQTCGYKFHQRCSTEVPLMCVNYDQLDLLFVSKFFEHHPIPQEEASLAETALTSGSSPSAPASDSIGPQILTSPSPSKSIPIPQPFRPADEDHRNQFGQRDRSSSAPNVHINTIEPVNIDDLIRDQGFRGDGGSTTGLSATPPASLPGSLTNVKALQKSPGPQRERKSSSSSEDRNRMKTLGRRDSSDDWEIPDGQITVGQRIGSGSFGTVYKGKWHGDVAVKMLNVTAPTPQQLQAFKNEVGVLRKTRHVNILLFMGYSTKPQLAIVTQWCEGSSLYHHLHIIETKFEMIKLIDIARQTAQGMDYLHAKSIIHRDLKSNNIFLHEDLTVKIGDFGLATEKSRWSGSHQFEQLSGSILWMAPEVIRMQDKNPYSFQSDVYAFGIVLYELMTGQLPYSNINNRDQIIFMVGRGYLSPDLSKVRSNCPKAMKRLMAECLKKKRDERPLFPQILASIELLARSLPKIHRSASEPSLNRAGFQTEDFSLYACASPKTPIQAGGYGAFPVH

[10] = molecular target: T1, Muscarinic acetylcholine receptor M2 (Homo sapiens) (UniProt P08172); test: M2 (h) Eurofins-Cerep binding assay; parameters: ligand concentration 2 nM; details: filed as antagonist, Compound concentration 10.0 uM
T1 sequence (whole entry): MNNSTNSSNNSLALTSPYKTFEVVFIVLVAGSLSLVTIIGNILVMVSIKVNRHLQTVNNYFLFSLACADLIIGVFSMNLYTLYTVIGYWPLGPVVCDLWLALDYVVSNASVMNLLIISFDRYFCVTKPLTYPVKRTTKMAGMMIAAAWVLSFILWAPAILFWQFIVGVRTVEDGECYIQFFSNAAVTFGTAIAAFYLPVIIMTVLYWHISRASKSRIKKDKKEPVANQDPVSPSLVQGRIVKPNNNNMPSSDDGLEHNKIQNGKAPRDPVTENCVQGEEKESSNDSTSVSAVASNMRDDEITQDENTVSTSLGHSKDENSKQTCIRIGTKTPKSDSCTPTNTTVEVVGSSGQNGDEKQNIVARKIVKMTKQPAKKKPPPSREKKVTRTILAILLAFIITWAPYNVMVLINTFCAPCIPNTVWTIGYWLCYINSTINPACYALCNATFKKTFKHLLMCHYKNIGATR

[11] = molecular target: Serine/threonine-protein kinase WNK3 (Homo sapiens) (UniProt Q9BYP7); details: Compound concentration 1000.0 nM
[12] = molecular target: Aurora kinase A (Homo sapiens) (UniProt O14965); details: Compound concentration 1000.0 nM
Aurora kinase A (Homo sapiens), sequence (O14965 whole entry): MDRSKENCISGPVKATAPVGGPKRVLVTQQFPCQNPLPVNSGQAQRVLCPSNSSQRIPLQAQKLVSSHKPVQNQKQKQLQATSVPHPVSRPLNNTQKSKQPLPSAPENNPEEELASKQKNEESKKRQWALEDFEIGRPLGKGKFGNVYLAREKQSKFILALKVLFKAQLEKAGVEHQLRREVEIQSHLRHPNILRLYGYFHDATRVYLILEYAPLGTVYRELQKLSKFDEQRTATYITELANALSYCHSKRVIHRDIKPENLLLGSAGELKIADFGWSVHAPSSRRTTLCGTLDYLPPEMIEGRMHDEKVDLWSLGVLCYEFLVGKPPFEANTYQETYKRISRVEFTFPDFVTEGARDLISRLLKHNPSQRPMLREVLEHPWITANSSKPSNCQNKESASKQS

[13] = molecular target: Uncharacterized serine/threonine-protein kinase SBK3 (Homo sapiens) (UniProt P0C264); details: Compound concentration 1000.0 nM
[14] = test system: Receptor-type tyrosine-protein kinase FLT3 (Homo sapiens), P36888 [R834Q]; details: Compound concentration 1000.0 nM
[15] = molecular target: Calcium/calmodulin-dependent protein kinase type 1 (Homo sapiens) (UniProt Q14012); details: Compound concentration 1000.0 nM
[16] = test system: Tyrosine-protein kinase ABL1 (Homo sapiens), P00519 [H396P]; details: Compound concentration 1000.0 nM
[17] = molecular target: Death-associated protein kinase 1 (Homo sapiens) (UniProt P53355); details: Compound concentration 1000.0 nM
[18] = molecular target: Phosphatidylinositol 4,5-bisphosphate 3-kinase catalytic subunit beta isoform (Homo sapiens) (UniProt P42338); details: Compound concentration 1000.0 nM
[19] = molecular target: Macrophage colony-stimulating factor 1 receptor (Homo sapiens) (UniProt P07333); details: Compound concentration 1000.0 nM
[20] = test system: Tyrosine-protein kinase ABL1 (Homo sapiens), P00519 [F317L]; details: Compound concentration 1000.0 nM
[21] = molecular target: Serine/threonine-protein kinase 38-like (Homo sapiens) (UniProt Q9Y2H1); details: Compound concentration 1000.0 nM
[22] = molecular target: Cyclin-dependent kinase 11B (Homo sapiens) (UniProt P21127); details: Compound concentration 1000.0 nM
[23] = molecular target: Fibroblast growth factor receptor 4 (Homo sapiens) (UniProt P22455); details: Compound concentration 1000.0 nM
Fibroblast growth factor receptor 4 (Homo sapiens), sequence (P22455 22-802 limits assumed): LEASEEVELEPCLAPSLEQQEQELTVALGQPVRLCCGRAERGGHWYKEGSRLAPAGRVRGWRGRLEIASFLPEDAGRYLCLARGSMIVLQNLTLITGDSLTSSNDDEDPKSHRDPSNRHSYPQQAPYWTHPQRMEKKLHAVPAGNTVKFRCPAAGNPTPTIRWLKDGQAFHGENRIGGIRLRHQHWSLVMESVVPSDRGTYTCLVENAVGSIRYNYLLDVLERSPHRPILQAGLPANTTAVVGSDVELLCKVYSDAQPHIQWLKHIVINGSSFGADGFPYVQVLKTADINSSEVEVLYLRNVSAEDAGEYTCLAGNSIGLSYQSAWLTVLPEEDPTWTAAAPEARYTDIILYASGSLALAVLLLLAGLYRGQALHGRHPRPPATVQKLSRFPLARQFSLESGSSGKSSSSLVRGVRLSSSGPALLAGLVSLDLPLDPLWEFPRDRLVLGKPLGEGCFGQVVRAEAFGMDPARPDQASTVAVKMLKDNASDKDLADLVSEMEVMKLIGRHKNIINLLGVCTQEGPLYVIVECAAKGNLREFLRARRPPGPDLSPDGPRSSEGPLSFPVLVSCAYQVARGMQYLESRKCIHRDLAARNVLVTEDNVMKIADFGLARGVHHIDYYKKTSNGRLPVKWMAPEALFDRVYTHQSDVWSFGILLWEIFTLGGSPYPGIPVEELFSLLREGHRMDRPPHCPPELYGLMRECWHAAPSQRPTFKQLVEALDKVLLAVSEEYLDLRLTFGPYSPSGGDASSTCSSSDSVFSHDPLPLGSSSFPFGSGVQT

[24] = molecular target: Cyclin-dependent kinase 7 (Homo sapiens) (UniProt P50613); details: Compound concentration 1000.0 nM
Cyclin-dependent kinase 7 (Homo sapiens), sequence (P50613 whole entry): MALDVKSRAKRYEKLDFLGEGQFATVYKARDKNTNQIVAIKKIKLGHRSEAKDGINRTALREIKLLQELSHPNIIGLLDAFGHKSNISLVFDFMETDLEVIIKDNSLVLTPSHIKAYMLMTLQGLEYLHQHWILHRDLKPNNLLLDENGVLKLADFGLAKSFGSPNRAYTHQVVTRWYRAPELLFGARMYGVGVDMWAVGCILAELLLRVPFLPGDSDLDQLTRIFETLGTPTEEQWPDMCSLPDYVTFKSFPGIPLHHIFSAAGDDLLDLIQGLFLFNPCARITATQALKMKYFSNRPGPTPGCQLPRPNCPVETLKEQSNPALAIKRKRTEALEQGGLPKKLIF

[25] = molecular target: Dual specificity testis-specific protein kinase 1 (Homo sapiens) (UniProt Q15569); details: Compound concentration 1000.0 nM
Dual specificity testis-specific protein kinase 1 (Homo sapiens), sequence (Q15569 whole entry, looked up): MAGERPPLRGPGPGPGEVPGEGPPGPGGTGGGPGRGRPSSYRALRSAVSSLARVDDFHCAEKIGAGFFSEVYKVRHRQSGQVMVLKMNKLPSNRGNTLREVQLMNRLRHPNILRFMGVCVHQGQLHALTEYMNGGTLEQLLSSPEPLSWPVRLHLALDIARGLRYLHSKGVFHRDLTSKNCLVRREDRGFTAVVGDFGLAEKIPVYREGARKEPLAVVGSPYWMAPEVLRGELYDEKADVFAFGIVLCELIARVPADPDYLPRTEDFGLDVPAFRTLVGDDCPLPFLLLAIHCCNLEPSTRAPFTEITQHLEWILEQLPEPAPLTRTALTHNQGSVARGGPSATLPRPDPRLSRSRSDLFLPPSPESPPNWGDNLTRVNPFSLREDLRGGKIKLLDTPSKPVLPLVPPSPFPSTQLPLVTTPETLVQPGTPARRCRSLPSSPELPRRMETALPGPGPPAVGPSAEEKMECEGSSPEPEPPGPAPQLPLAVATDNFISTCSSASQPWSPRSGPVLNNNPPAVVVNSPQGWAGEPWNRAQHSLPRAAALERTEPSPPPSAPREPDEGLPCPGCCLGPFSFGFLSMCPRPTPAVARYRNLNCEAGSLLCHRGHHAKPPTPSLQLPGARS

[26] = molecular target: Serine/threonine-protein kinase ULK2 (Homo sapiens) (UniProt Q8IYT8); details: Compound concentration 1000.0 nM
[27] = molecular target: Phosphatidylinositol 5-phosphate 4-kinase type-2 gamma (Homo sapiens) (UniProt Q8TBX8); details: Compound concentration 1000.0 nM
[28] = test system: Epidermal growth factor receptor (Homo sapiens), P00533 [G719S]; details: Compound concentration 1000.0 nM
[29] = molecular target: Tyrosine-protein kinase SYK (Homo sapiens) (UniProt P43405); details: Compound concentration 1000.0 nM
[30] = molecular target: Sigma non-opioid intracellular receptor 1 (Homo sapiens, UniProt Q99720); details: Compound concentration 10.0 uM
[31] = molecular target: Receptor-type tyrosine-protein kinase FLT3 (Homo sapiens) (UniProt P36888); details: Compound concentration 1000.0 nM
[32] = molecular target: Sodium-dependent noradrenaline transporter (Homo sapiens) (UniProt P23975); test: norepinephrine transporter (h) Eurofins-Cerep binding assay; parameters: ligand concentration 1 nM; details: filed as antagonist, Compound concentration 10.0 uM
Sodium-dependent noradrenaline transporter (Homo sapiens), sequence (P23975 whole entry): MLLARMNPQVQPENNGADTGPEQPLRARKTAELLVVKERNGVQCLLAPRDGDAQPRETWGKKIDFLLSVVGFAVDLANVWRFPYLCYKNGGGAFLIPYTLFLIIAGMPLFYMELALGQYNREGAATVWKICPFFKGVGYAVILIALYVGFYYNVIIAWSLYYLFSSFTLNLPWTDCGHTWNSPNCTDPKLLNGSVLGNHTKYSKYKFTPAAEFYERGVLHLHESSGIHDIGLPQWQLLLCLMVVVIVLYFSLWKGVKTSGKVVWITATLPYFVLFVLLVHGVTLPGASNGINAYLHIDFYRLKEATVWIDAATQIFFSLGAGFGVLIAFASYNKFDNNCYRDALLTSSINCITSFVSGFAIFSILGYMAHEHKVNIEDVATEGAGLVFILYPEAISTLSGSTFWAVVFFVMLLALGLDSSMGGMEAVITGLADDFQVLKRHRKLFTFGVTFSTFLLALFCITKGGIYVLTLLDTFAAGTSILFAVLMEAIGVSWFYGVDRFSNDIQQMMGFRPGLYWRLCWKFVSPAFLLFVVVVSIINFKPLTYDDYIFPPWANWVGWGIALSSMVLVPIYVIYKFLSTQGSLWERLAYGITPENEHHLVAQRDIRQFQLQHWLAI

[33] = test system: Leucine-rich repeat serine/threonine-protein kinase 2 (Homo sapiens), Q5S007 [G2019S]; details: Compound concentration 1000.0 nM
[34] = molecular target: Casein kinase II subunit alpha' (Homo sapiens) (UniProt P19784); details: Compound concentration 1000.0 nM
[35] = molecular target: Tyrosine-protein kinase ABL1 (Homo sapiens) (UniProt P00519); details: Compound concentration 1000.0 nM
[36] = test system: Receptor-type tyrosine-protein kinase FLT3 (Homo sapiens), P36888 [D835H]; details: Compound concentration 1000.0 nM
[37] = molecular target: Ribosomal protein S6 kinase alpha-3 (Homo sapiens) (UniProt P51812); details: Compound concentration 1000.0 nM
[38] = molecular target: Phosphatidylinositol 4,5-bisphosphate 3-kinase catalytic subunit alpha isoform (Homo sapiens) (UniProt P42336); details: Compound concentration 1000.0 nM
Phosphatidylinositol 4,5-bisphosphate 3-kinase catalytic subunit alpha isoform (Homo sapiens), sequence (P42336 whole entry, canonical isoform): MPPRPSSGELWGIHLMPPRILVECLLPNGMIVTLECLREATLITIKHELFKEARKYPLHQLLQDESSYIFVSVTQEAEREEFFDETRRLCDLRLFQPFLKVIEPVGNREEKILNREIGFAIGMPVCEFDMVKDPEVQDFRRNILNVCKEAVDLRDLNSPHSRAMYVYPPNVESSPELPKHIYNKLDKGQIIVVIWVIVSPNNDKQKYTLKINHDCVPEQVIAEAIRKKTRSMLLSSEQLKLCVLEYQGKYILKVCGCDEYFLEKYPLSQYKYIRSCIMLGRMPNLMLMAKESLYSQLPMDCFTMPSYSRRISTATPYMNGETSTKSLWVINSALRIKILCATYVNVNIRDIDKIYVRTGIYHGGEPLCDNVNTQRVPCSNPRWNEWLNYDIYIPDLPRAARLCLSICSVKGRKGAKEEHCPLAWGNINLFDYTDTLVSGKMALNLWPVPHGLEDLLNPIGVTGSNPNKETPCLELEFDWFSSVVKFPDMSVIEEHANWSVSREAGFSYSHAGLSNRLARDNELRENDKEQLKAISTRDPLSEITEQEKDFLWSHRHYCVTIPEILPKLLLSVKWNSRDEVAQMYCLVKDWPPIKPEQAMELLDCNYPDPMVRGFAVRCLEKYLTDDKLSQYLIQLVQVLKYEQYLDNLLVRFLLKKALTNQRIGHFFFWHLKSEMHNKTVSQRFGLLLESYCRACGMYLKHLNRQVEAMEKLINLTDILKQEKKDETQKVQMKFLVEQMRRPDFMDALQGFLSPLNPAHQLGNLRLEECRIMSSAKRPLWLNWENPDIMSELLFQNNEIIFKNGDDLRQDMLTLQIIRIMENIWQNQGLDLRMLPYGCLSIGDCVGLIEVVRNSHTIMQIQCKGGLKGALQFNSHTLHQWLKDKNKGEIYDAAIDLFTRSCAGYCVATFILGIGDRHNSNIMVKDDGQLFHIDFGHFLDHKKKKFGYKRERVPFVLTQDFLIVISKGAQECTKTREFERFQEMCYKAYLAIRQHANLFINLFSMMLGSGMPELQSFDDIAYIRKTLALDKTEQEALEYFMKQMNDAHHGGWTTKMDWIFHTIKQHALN

Mu-type opioid receptor (Homo sapiens), sequence (P35372 whole entry): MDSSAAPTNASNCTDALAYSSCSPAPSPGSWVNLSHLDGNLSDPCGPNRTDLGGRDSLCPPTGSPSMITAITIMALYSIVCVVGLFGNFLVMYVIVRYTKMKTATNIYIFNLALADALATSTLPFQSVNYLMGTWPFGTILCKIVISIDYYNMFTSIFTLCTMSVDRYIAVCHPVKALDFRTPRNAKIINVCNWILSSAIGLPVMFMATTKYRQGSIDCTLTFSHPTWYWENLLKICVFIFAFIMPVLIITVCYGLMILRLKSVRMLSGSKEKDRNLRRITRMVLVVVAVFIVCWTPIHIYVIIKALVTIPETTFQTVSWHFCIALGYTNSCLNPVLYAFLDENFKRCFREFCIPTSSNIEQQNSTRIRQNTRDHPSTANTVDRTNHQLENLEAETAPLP

Row | Compound | % Inhibition of Control Specific Binding (Mean n=2) [1] | residual activity [2] | residual activity [3] | residual activity [4] | residual activity [5] | residual activity [6] | residual activity [7] | % Inhibition of Control Specific Binding (Mean n=2) [8] | residual activity [9] | % Inhibition of Control Specific Binding (Mean n=2) [10] | residual activity [11] | residual activity [12] | residual activity [13] | residual activity [14] | residual activity [15] | residual activity [16] | residual activity [17] | residual activity [18] | residual activity [19] | residual activity [20] | other results
1 | COc1ccc2c(c1)O[C@@H](c1ccc(OC)c(OC)c1)C[C@H]2NC(=O)C1(c2ccc3c(c2)OC(F)(F)O3)CC1 [A-1596586] | 9.8% | 88% | 81% | 91% | 100% | 85% | 91% | 6.1% | 100% | -9.9% | 100% | 92% | 100% | 100% | 100% | 86% | 99% | 89% | 82% | 94% | residual activity [21]: 100%; residual activity [22]: 100%; residual activity [23]: 90%; residual activity [24]: 80%; residual activity [25]: 96%; residual activity [26]: 77%; residual activity [27]: 83%; residual activity [28]: 91%; residual activity [29]: 100%; inhibition [30]: 82.8%; residual activity [31]: 80%; % Inhibition of Control Specific Binding (Mean n=2) [32]: 23.5%; residual activity [33]: 90%; residual activity [34]: 87%; residual activity [35]: 86%; residual activity [36]: 100%; residual activity [37]: 81%; residual activity [38]: 86%
2 | COc1ccc2c(c1)O[C@H](c1ccc(OC)c(OC)c1)C[C@@H]2NC(=O)C1(c2ccc3c(c2)OC(F)(F)O3)CC1 [A-1596584] | 11.3% | 100% | 91% | 100% | 100% | 88% | 100% | 25.8% | 93% | -5.5% | 100% | 100% | 100% | 100% | 100% | 98% | 100% | 100% | 100% | 97% | residual activity [21]: 100%; residual activity [22]: 100%; residual activity [23]: 100%; residual activity [24]: 85%; residual activity [25]: 98%; residual activity [26]: 100%; residual activity [27]: 83%; residual activity [28]: 99%; residual activity [29]: 100%; inhibition [30]: 53%; residual activity [31]: 83%; % Inhibition of Control Specific Binding (Mean n=2) [32]: 18.2%; residual activity [33]: 100%; residual activity [34]: 100%; residual activity [35]: 100%; residual activity [36]: 100%; residual activity [37]: 74%; residual activity [38]: 82%
